In patent publication US20090081197A1 (Palatin Technologies, Inc., priority 2007, published 2009):
Non-standard residues stand in square brackets, D forms with d. Residues, ends and D or L forms follow the SMILES beside them. *: point of attachment. dPhe(4-Cl) = N[C@H](Cc1ccc(Cl)cc1)C(=O)O; Ahp = NCCCCCCC(=O)O; Bn = c1ccc(C*)cc1

What was measured:
[1] = target: T1, MC1-R (Mus musculus, UniProt Q01727); assay: Competitive inhibition assay using [I^125]-NDP-α-MSH, B-16 mouse melanoma cell membranes; format: binding; conditions: for inhibition at 1 µM: 1 μM test compound, read-out: Inhibition at 1 μM (NDP-α-MSH) In Normal System, MC1-R; for Ki: read-out: Ki (nM) (NDP-α-MSH) In Normal System, MC1-R
T1 construct: B-16 mouse melanoma cells (containing MC1-R); endogenous in cells
T1 sequence (Q01727 whole entry): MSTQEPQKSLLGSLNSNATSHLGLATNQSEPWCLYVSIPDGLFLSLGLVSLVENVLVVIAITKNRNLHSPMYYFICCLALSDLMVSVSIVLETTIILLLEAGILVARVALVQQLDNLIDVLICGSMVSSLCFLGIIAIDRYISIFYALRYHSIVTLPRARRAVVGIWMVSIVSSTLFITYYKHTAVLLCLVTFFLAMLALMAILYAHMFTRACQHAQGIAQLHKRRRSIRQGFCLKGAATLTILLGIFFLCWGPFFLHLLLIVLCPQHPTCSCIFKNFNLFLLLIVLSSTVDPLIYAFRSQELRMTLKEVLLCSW
Summary of the method: (§1)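 Tracer was 0.4 nM for MC3-R and MC5-R, 0.2 nM for MC4-R and 0.1 nM for MC1-R. Bound radioactivity was gamma-counted after filtration; values are triplicate means, with results below 0% reported as 0%.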

[2] = Penile erection induction in male rats; format: in vivo; conditions: rat
Summary of the method: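 Male Sprague-Dawley rats (200-250 g), groups of 4-8, dosed IV or ICV at various doses and observed individually for penile erections. Only statistically relevant increases over vehicle-control mean PEs count as induction; IV responses below 1.0 PEs/rat treated as equivocal, some retested ICV.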

[3] = ICV food intake and body weight change; format: in vivo; conditions: rat, 1 nmol, 24 hours
Protocol: ICV food intake and body weight change. Change in food intake and body weight was evaluated for selected compounds. Rats with indwelling intracerebroventricular cannulas (ICV rats) were obtained from Hilltop Lab Animals, Inc. (Scottdale, Pa.). Animals were individually housed in conventional plexiglass hanging cages and maintained on a controlled 12 hour on/off light cycle. Water and powdered (LabDiet, 5P00 Prolab RMH 3000) or pelleted (Harlan Teklad 2018 18% Protein Rodent Diet) food was provided ad libitum. For 1 week before treatment, 24-hour food intake and body weight change was recorded to assess a baseline for the group during vehicle treatment. The rats were dosed ICV with vehicle or selected compounds (1-3 nmol). The changes in body weight and food intake for the 24 hour period after dosing were determined. The changes in body weight and food intake for the 48 hour and 72 hour periods after dosing were also measured to determine reversal of changes in body weight and food intake effects back to baseline levels.

[4] = IP (and IN) food intake, mice; format: in vivo; conditions: mouse, 4 hours
Protocol: IV and IP food intake and body weight change. Change in food intake and body weight was evaluated for selected compounds. Male Sprague-Dawley rats or male C57BL/6 mice were utilized. Animals were individually housed in conventional plexiglass hanging cages and maintained on a controlled 12 hour on/off light cycle. Water and powdered (LabDiet, 5P00 Prolab RMH 3000) or pelleted (Harlan Teklad 2018 18% Protein Rodent Diet) food was provided ad libitum. For 1 week before treatment, 24-hour food intake and body weight change was recorded to assess a baseline for the group during vehicle treatment. The rats were dosed IV with vehicle or selected compounds (0.5-3 mg/kg, and in some cases up to 10 mg/Kg) or dosed intraperitoneally (IP) with vehicle or selected compounds (0.5-10 mg/kg, and in some cases up to 50 mg/kg). Mice were dosed IP. […] The changes in body weight and food intake for the 48 hour and 72 hour periods after dosing were also measured to determined reversal of changes in body weight and food intake effects back to baseline levels.

[5] = target: MC3-R (Homo sapiens, UniProt P41968); assay: Competitive inhibition assay using [I^125]-NDP-α-MSH, hMC3-R membranes; format: binding; parameters: expressed in transfected cells; conditions: for inhibition at 1 µM: 1 μM test compound, read-out: Inhibition at 1 μM (NDP-α-MSH) In Normal System, MC3-R
Sequence of MC3-R (P41968 whole entry): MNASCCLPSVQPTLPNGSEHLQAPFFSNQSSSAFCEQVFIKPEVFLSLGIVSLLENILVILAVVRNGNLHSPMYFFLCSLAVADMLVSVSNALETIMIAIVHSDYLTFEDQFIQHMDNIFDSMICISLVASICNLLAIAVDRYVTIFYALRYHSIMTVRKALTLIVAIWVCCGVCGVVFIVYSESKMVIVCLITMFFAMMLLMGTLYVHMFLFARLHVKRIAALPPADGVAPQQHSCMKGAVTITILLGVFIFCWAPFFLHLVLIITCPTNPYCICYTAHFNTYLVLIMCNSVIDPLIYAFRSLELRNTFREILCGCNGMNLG
Summary of the method: as §1

[6] = target: MC5-R (Homo sapiens, UniProt P33032); assay: Competitive inhibition assay using [I^125]-NDP-α-MSH, hMC5-R membranes; format: binding; parameters: expressed in transfected cells; conditions: for inhibition at 1 µM: 1 μM test compound, read-out: Inhibition at 1 μM (NDP-α-MSH) In Normal System, MC5-R
Sequence of MC5-R (P33032 whole entry): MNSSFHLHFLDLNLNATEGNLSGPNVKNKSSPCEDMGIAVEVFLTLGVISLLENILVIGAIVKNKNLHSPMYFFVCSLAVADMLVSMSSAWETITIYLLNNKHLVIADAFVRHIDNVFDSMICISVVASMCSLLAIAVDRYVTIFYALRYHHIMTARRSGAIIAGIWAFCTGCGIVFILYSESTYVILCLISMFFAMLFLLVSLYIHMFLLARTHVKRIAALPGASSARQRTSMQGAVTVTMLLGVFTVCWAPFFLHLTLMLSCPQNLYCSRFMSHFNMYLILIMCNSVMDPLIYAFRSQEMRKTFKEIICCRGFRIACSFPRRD
Summary of the method: as §1

[7] = target: T2, MC4-R (Homo sapiens, UniProt P32245); assay: cAMP functional activity assay in HEK-293 cells, normal system; format: cell-based; parameters: expressed in transfected cells; host or cells: HEK-293; conditions: for intrinsic activity at MC4-R in a normal system: NDP-α-MSH = 1.0; for functional status at MC4-R in cAMP assay: normal system, 1 μM concentration where stated
T2 sequence (P32245 whole entry): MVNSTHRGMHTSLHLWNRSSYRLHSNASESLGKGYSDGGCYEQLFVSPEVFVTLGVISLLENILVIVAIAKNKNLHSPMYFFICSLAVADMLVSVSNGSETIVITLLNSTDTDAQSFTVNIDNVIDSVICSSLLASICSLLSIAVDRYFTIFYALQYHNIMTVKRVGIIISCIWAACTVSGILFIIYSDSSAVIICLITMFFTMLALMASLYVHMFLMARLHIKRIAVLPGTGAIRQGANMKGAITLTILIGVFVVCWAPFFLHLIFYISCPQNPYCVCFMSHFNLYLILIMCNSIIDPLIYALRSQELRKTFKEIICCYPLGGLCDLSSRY

[8] = target: T2, MC4-R; assay: Competitive inhibition assay using [I^125]-NDP-α-MSH, hMC4-R membranes; format: binding; parameters: host or cells: TREx-293 (HEK-293 stably expressing Tet repressor); conditions: for inhibition at 1 µM: 1 μM test compound, read-out: Inhibition at 1 μM (NDP-α-MSH) In Normal System, MC4-R; for Ki: read-out: Ki (nM) (NDP-α-MSH) In Normal System, MC4-R
Summary of the method: as §1

[9] = target: T2, MC4-R; assay: cAMP agonist stimulation, low receptor density system (0.1 ng/mL doxycycline); conditions: 0.1 ng/mL doxycycline, low receptor density hMC4-R system; NDP-α-MSH maximal cAMP = 1.0
[10] = target: T2, MC4-R; assay: cAMP agonist stimulation, high receptor density system (10 ng/mL doxycycline); conditions: for Efficacy/Intrinsic Activity: 10 ng/mL doxycycline, high receptor density hMC4-R system, NDP-α-MSH maximal cAMP = 1.0
[11] = IV and IP food intake and body weight change, rats; format: in vivo; conditions: rat, IV, dose not stated; for decrease in body weight: 24 hours
Protocol: IV and IP food intake and body weight change. Change in food intake and body weight was evaluated for selected compounds. Male Sprague-Dawley rats or male C57BL/6 mice were utilized. Animals were individually housed in conventional plexiglass hanging cages and maintained on a controlled 12 hour on/off light cycle. Water and powdered (LabDiet, 5P00 Prolab RMH 3000) or pelleted (Harlan Teklad 2018 18% Protein Rodent Diet) food was provided ad libitum. For 1 week before treatment, 24-hour food intake and body weight change was recorded to assess a baseline for the group during vehicle treatment. The rats were dosed IV with vehicle or selected compounds (0.5-3 mg/kg, and in some cases up to 10 mg/Kg) or dosed intraperitoneally (IP) with vehicle or selected compounds (0.5-10 mg/kg, and in some cases up to 50 mg/kg). Mice were dosed IP. The changes in body weight and food intake for the 24 hour period after dosing were determined. The changes in body weight and food intake for the 48 hour and 72 hour periods after dosing were also measured to determined reversal of changes in body weight and food intake effects back to baseline levels.

**Q.** With `N=C(N)NCCC[C@H](NC(=O)[C@@H](Cc1ccc(Cl)cc1)NC(=O)[C@H](COCc1ccccc1)NC(=O)CCCCCCN)C(=O)N[C@@H](Cc1c[nH]c2ccccc12)C(N)=O` [Example 1, NH2—(CH2)6—C(═O)-Ser(Bzl)-(D)Phe(4-Cl)-Arg-Trp-NH2] (H-[Ahp]S(Bn)[dPhe(4-Cl)]RW-NH2) as the molecule, how does the inhibition at 1 µM [1] read?
**A.** 33%

**Q.** What about the “Penile Erection ICV” value ([2]; ICV) of the same molecule?
**A.** No

**Q.** And the penile erection response ([2]; ICV, 0.01 to 5 nmol)?
**A.** no penile erection response

**Q.** And the “decrease in food intake” value [3]?
**A.** 21%

**Q.** What about the “maximal decrease in food intake” value ([4]; IN, 10 μg/kg) of the same molecule?
**A.** 16%

**Q.** What about the “maximal decrease in food intake” value ([4]; IP, 3 mg/kg) of the same molecule?
**A.** 26%

**Q.** And the inhibition at 1 µM [5]?
**A.** 94%

**Q.** And the inhibition at 1 µM [6]?
**A.** 73%

**Q.** What about the “intrinsic activity at MC4-R in a normal system” value ([7]; normal receptor density system) of the same molecule?
**A.** 0.32

**Q.** And the “functional status at MC4-R in cAMP assay” value [7]?
**A.** partial agonist (intrinsic activity between 0.1 (10%) and 0.7 (70%) is classified as a partial agonist)

**Q.** What about the inhibition at 1 µM [8] of the same molecule?
**A.** 99%

**Q.** What about the Ki [8] of the same molecule?
**A.** 3 nM

**Q.** What about the “Efficacy/Intrinsic Activity” value [9] of the same molecule?
**A.** None

**Q.** And the EC50 [10]?
**A.** 21 nM

**Q.** What about the “Efficacy/Intrinsic Activity” value [10] of the same molecule?
**A.** 0.97

**Q.** Which results are given for `N=C(N)NCCC[C@H](NC(=O)[C@@H](Cc1ccc(Cl)cc1)NC(=O)[C@H](COCc1ccccc1)NC(=O)CCCCCCN)C(=O)N[C@@H](Cc1c[nH]c2ccccc12)C(=O)N[C@@H](CC(=O)O)C(=O)N[C@@H](Cc1ccccc1)C(N)=O` [Example 14, NH2—(CH2)6—C(═O)-Ser(Bzl)-D-Phe(4-Cl)-Arg-Trp-Asp-Phe-NH2] (H-[Ahp]S(Bn)[dPhe(4-Cl)]RWDF-NH2)?
**A.** inhibition at 1 µM [1]: 38%; Penile Erection IV ([2]; IV): No; penile erection response ([2]; IV): no penile erection response; decrease in body weight [3]: −2%; decrease in food intake [3]: 50%; 24 hour decrease in food intake [11]: 30%; decrease in body weight [11]: 2%; inhibition at 1 µM [5]: 66%; inhibition at 1 µM [6]: 52%; intrinsic activity at MC4-R in a normal system ([7]; normal receptor density system): 0.5; functional status at MC4-R in cAMP assay [7]: partial agonist (intrinsic activity between 0.1 (10%) and 0.7 (70%) is classified as a partial agonist); inhibition at 1 µM [8]: 99%; Efficacy/Intrinsic Activity [9]: None; EC50 [10]: 141 nM; Efficacy/Intrinsic Activity [10]: 0.64

**Q.** For `C[C@H](NC(=O)[C@H](Cc1c[nH]c2ccccc12)NC(=O)[C@H](CCCNC(=N)N)NC(=O)[C@@H](Cc1ccc(Cl)cc1)NC(=O)[C@H](COCc1ccccc1)NC(=O)CCCCCCN)C(N)=O` [Example 15, NH2—(CH2)6—C(═O)-Ser(Bzl)-D-Phe(4-Cl)-Arg-Trp-Ala-NH2] (H-[Ahp]S(Bn)[dPhe(4-Cl)]RWA-NH2), which inhibition at 1 µM [1] is on record?
**A.** 60%

**Q.** What about the “Penile Erection IV” value ([2]; IV) of the same molecule?
**A.** No

**Q.** And the penile erection response ([2]; IV)?
**A.** no penile erection response

**Q.** What about the “decrease in body weight” value [3] of the same molecule?
**A.** 2%

**Q.** What about the “decrease in food intake” value [3] of the same molecule?
**A.** 14%

**Q.** And the “24 hour decrease in food intake” value [11]?
**A.** 4%

**Q.** What about the inhibition at 1 µM [5] of the same molecule?
**A.** 93%

**Q.** What about the inhibition at 1 µM [6] of the same molecule?
**A.** 79%

**Q.** What about the “intrinsic activity at MC4-R in a normal system” value ([7]; normal receptor density system) of the same molecule?
**A.** less than 0.1

**Q.** And the “functional status at MC4-R in cAMP assay” value [7]?
**A.** functionally inactive

**Q.** What about the inhibition at 1 µM [8] of the same molecule?
**A.** 100%

**Q.** What about the “Efficacy/Intrinsic Activity” value [9] of the same molecule?
**A.** None

**Q.** And the EC50 [10]?
**A.** 55 nM

**Q.** What about the “Efficacy/Intrinsic Activity” value [10] of the same molecule?
**A.** 0.67

**Q.** What does the source list for `N=C(N)NCCC[C@H]1C(=O)N2C(CC[C@@H]2COc2ccc3ccccc3c2)N1C(=O)[C@@H](Cc1ccc(Cl)cc1Cl)NC(=O)[C@@H]1CC[C@H](c2ccccc2)N1` (stereo partly drawn) [Example 19, (2S,5R)-5-Phenyl-pyrrolidine-2-carboxylic acid {(R)-1-(2,4-dichloro-benzyl)-2-[(2S,5R)-2-(3-guanidino-propyl)-5-(naphthalen-2-yloxymethyl)-3-oxo-hexahydro-pyrrolo[1,2-a]imidazol-1-yl]-2-oxo-ethyl}-amide]?
**A.** inhibition at 1 µM [1]: 16%; Ki [1]: 1040 nM; Penile Erection IV ([2]; IV): No; penile erection response ([2]; IV, 1 μg/kg): no penile erection response; decrease in body weight [3]: 3%; decrease in food intake [3]: 38%; 24 hour decrease in food intake [11]: 1%; decrease in body weight [11]: 2%; inhibition at 1 µM [5]: 43%; inhibition at 1 µM [6]: 86%; functional status at MC4-R in cAMP assay [7]: no intrinsic activity (intrinsic activity below 0.1 (10%) is classified as inactive or having no intrinsic activity); inhibition at 1 µM [8]: 97%; Efficacy/Intrinsic Activity [9]: None; EC50 [10]: 173 nM; Efficacy/Intrinsic Activity [10]: 0.22

**Q.** Which results are given for `CC(=O)N[C@H](Cc1ccc(Cl)cc1C)C(=O)N1C[C@@H](C)N(C(=O)Cc2ccc3ccccc3c2)C[C@@H]1CCCNC(=N)N` [Example 31, N-{(R)-1-(2-methyl, 4-chloro-benzyl)-2-[(2S,5R)-2-(3-guanidino-propyl)-5-methyl-4-(2-naphthalen-2-yl-acetyl)-piperazin-1-yl]-2-oxo-ethyl}-acetamide]?
**A.** Ki [1]: 1390 nM; Penile Erection IV ([2]; IV): No; penile erection response ([2]; IV, 0.0003 to 0.03 mg/kg): no penile activity response; inhibition in vivo at 10 mg/kg ([4]; IP, 10 mg/kg, read-out: maximal decrease in food intake): 7%; Ki ([5]; read-out: Ki (nM) (NDP-α-MSH) In Normal System, MC3-R): 136 nM; Ki ([6]; read-out: Ki (nM) (NDP-α-MSH) In Normal System, MC5-R): 234 nM; EC50 ([7]; normal receptor density system): 3 nM; intrinsic activity at MC4-R in a normal system ([7]; normal receptor density system): 0.6; functional status at MC4-R in cAMP assay [7]: partial agonist (intrinsic activity between 0.1 (10%) and 0.7 (70%) is classified as a partial agonist); Ki [8]: 5 nM; Efficacy/Intrinsic Activity [9]: None; EC50 [10]: 39 nM; Efficacy/Intrinsic Activity [10]: 0.27
